Columns and labels:
Assay type in all cases: in vivo, C57/BL6 mice
[1] = test system: model of Parkinson's disease; experiment: Behavioral balance beam score in the MPTP mouse model of Parkinson's disease; settings: for balance beam score after treatment: after 14 days intragastric treatment, model group 4-5 points; for Behavioral balance beam score, After treatment: after intragastric administration once a day for 14 days (compound 3 100 mg/kg; amantadine 40 mg/kg), model group 4.50 ± 0.53; for Behavioral balance beam score, After treatment / Behavioral balance beam score, After modeling: scale 0-5; for balance beam score as compared to the model group: after treatment, P≤0.05; for Behavioral balance beam score, After modeling: baseline 7 days after MPTP 25 mg/kg i.p. once daily, before treatment, mean ± SD, 8 mice per group
Description: C57/BL6 mice, SPF grade, weighing 18-20 g, aged 6-8 weeks, male, purchased from Shanghai Slac Laboratory Animal Co., Ltd. Feeding environment: the temperature was kept at 22±1° C., and the humidity was kept at 65%-70%, in a 12/12 hour light/dark illumination cycle, with free access to water.
(1) 32 SPF-grade C57 mice aged 6-8 weeks were purchased and acclimatized for one week, and subsequently the modeling was started.
(§1) (2) MPTP (25 mg/kg) was intraperitoneally injected once a day for 7 consecutive days. The blank group was left untreated.
(§2) (3) After modeling, administration was started. […] The intragastric administration was performed once a day for 14 consecutive days.
(4) Behavioral test was first performed by balance beam test scoring.
A beam of 80 cm long and 2.5 cm wide was horizontally fixed at a height of 10 cm from the table top, and subsequently, the animals were allowed to walk on the beam.
The scoring scale was as follows: being able to jump on the balance beam and to walk freely without falling down: 0 points; being able to jump on the balance beam, but having a probability of tumbling down of less than 50% when walking on the balance beam: 1 point; being able to jump on the balance beam, but having a probability of tumbling down of greater than 50% when walking on the balance beam: 2 points; being able to jump on the balancing beam with the help of the normal side of the body, but failing to get help from the hind limb on the paralyzed side to move forward: 3 points; being unable to walk on the balance beam, but being able to sit on the beam: 4 points; falling off quickly when being placed on the beam: 5 points.

[2] = test system: tyrosine hydroxylase (TH) cells in substantia nigra (SubN); experiment: Tyrosine hydroxylase (TH) cells in substantia nigra (SubN) by immunohistochemistry in the MPTP mouse model of Parkinson's disease; settings: for positive rate of TH cells in substantia nigra as compared to the model group: after treatment; for TH cell positive rate: substantia nigra, after 14 days intragastric treatment (compound 3 100 mg/kg; amantadine 40 mg/kg), blank 34.27 ± 5.08, model 12.74 ± 1.71
Description: as §1, §2
The tissue should be cut using sharp knives and scissors. When cutting a tissue mass, the tissue was cut by pulling backwards from the root of the knife. […] The prepared tissue mass was fixed in 10% formalin for 48 h.
The fixed tissue was washed with running water to remove residual fixing liquid and impurities. The tissue mass was dehydrated in stages with different concentrations of ethanol (50%, 70%, 85%, 95%, up to pure alcohol (absolute ethanol)), each stage for 2 h. Dehydration must be performed in a capped flask to prevent high concentrations of ethanol from absorbing moisture in the air, resulting in reduced concentrations and incomplete dehydration. The material to be preserved can remain in 70% ethanol when being dehydrated with it. For long-term preservation, an equivalent amount of glycerol can be added.
The tissue mass was placed into a mixed solution of pure ethanol and xylene in an equivalent volume and left to stand for 2 h, subsequently placed into pure xylene and left to stand for two hours, and placed into pure xylene and left to stand for another two hours. After transparentizing, the effect of the previous dehydration of the material can be shown. If the dehydration is complete, the tissue is in a transparent state, and if there is a white cloud-shaped substance in the tissue, it means that the dehydration is incomplete and must be reworked, but the effect of rework is often not good. When xylene is used for transparentizing, it should be prevented from volatilizing and absorbing moisture in the air, and it should be kept in an anhydrous state.
The paraffin immersion must be performed in a thermostat. The tissue mass material was first immersed in a mixed solution of molten paraffin and xylene in equal volume for 1-2 h and subsequently immersed in 2 parts of molten paraffin solutions for 3 h each.
Embedding is the encapsulation of the paraffin-impregnated tissue mass with paraffin. Specifically, a paper box was first prepared, molten paraffin was added to the box, a tissue mass was quickly clamped by using a pair of pre-heated tweezers, and placed flat at the bottom of the paper box with a cut surface facing downwards. Subsequently, the paper box was slightly lifted up and placed flat in cold water, immediately pressed into the water after the paraffin on the surface was solidified for quickly cooling and solidifying the paraffin, and taken out after 30 min.
The paraffin block was placed in a refrigerator at −20° C. for at least 30 min before slicing to increase hardness. […]

dopamine in striatum = experiment: Content of dopamine in brain striatum by the kit method (ELISA) in the MPTP mouse model of Parkinson's disease
Description: as §1, §2
After the mice were sacrificed quickly, the brains of the mice were taken and the cerebral palliums (CPs) of the mice were isolated. After exposing the brain striatum of the mice, the striatum was weighed and homogenized after adding PBS according to a proportion. The supernatant was isolated and detected for the content of dopamine in the brain striatum.
(1) Standard curve plotting: a microplate was taken, and reagents were added according to the table below.
(2) According to the number of samples, a proper amount of BCA working solution was prepared by uniformly mixing BCA reagent A and reagent B according to a volume ratio of 50:1.
(3) 160 μL of BCA working solution was added to each well.
(4) The microplate was shaken on a shaker for 30 s, left to stand at 37° C. for 30 min, and subsequently measured for absorbance at 562 nm. A standard curve was plotted with the absorbance value as an abscissa and the protein concentration (μg/μL) as an ordinate.
(5) 2 μL of test protein and 18 μL of PBS (10-fold dilution) were added to the microplate, 160 μL of BCA working solution was added, and the microplate was shaken on a shaker for 30 s, left to stand at 37° C. for 30 min, and subsequently measured for the absorbance at 562 nm.
(7) The experimental procedures and methods for the determination of dopamine in mice were referred to the kit instructions.

| SMILES | balance beam score after treatment [1] | Behavioral balance beam score, After treatment [1] | balance beam score as compared to the model group [1] | Behavioral balance beam score, After modeling [1] | positive rate of TH cells in substantia nigra as compared to the model group [2] | TH cell positive rate [2] | DA content of dopamine in striatum after treatment (dopamine in striatum; after 14 days intragastric treatment (compound 3 100 mg/kg; amantadine 40 mg/kg), blank 0.71 ± 0.16, model 0.30 ± 0.07) | dopamine content as compared to the model group (dopamine in striatum; after treatment, P≤0.01) | content of dopamine compared with the blank group (dopamine in striatum; after treatment, P≤0.05) |
| --- | --- | --- | --- | --- | --- | --- | --- | --- | --- |
| NC12CC3CC(CC(C3)C1)C2 [Positive drug, amantadine, reference compound] | 2-3 points | 2.13 ± 0.83 | significant descending trend | 4.75 ± 0.46 | significant increase | 20.82 ± 5.77 % | – | – | – |
| C=C(C)[C@@H]1CCC(C)=C[C@H]1c1c(OC(=O)[C@@H](N)CCCCN)cc(CCCCC)cc1OC(=O)[C@@H](N)CCCCN [compound 3] | 3-4 points | 3.50 ± 1.07 | significant descending trend | 4.38 ± 0.52 | increase | 14.59 ± 2.60% | 0.45 ± 0.10 ng/mg | increase | significant decrease |
